The values below are quoted from earlier work in patent US11793981B2, “Microneedle device for control of thyroid hormone levels” (priority 2020, dated 2023).

For series [1] the following is noted: hypothyroid patients receiving LT4.
The test system of the next series is hypothyroidism. Conditions: LT4-treated patients, despite supposedly adequate LT4 treatment.
The conditions of series [2]: pregnancy.

Read-outs that look alike come from different tables or passages of the source.

For `N[C@@H](Cc1cc(I)c(Oc2ccc(O)c(I)c2)c(I)c1)C(=O)O` [LT3, liothyronine], for the setting “oral LT3”, the half-life result was “hours to two days”.
On to `N[C@@H](Cc1cc(I)c(Oc2cc(I)c(O)c(I)c2)c(I)c1)C(=O)O` [LT4, levothyroxine], for which the half-life result (oral LT4) was “about seven”. In addition, the “lower serum levels of T3” value in series [1] is “about 10%”. The “patients with residual symptoms of hypothyroidism and lower well-being” value with hypothyroidism is listed as 10-20%. In addition, the “crossing of the placenta” value in series [2] is “crosses the placenta”.
